Measurements from patent publication US20220274983A1, “JAK KINASE INHIBITOR AND USE THEREOF” (JIANGSU CAREPHAR PHARMACEUTICAL CO., LTD., priority 2019, published 2022).

Key:
[1] = test system: Salmonella TA98, TA100, TA1535, TA1537 and Escherichia coli; experiment: Reverse mutation test (Ames test); parameters: species or system Salmonella typhimurium; details: non-metabolic activation conditions and activation conditions (-S9/+S9)
Protocol: Salmonella TA98, TA100, TA1535, TA1537 and Escherichia coli were used as test strains (strain source: Molecular Toxicology, Inc.). Ames test was performed under non-metabolic activation conditions and activation conditions to investigate whether the compounds according to the present invention have gene mutation inducing properties.
The cryopreserved strains were resuscitated, inoculated into nutrient broth medium and cultured in a 37° C. constant temperature shaker at 100 to 120 rpm for 11 h. The bottom agar medium (containing an appropriate amount of agar, V-B buffer, 20% glucose solution, 20% magnesium sulfate solution) was poured into a dish to cool for later use. […] The cultured plate was removed, counted and compared with the DMSO group for evaluation. If the average number of reverted colonies is twice or more than the number of reverted colonies in the negative control group (which can be regarded as spontaneous reverted number) (TA1535: 3 times or more) and there is a dose-effect relationship, the result is positive, and the test sample can be determined to be a mutagenic agent. […]

[2] = test system: rat CIA model; experiment: Arthritis index (AI) of extremities in rat CIA model; details: CIA rats; for Arthritis index/Day: score 0-16;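 on all read-outs here: rats immunized with type II collagen plus complete Freund's adjuvant on day 0, boosted day 7, groups of 8, each paw graded 0-4 for swelling or redness, higher means worse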
Protocol: (§1) Lewis rats (female, 10-12 weeks old) were obtained from Beijing Vital River Laboratory Animal Technology Co., Ltd. The rats were on a light and dark alternation for 12 h, and the environment was kept at a temperature of 23±2° C. and a humidity of 40-70%.
(§2) Type II collagen solution (2 mg/mL) was prepared with 0.05 M acetic acid solution to allow to be fully dissolved, and placed overnight in the dark at 4° C. During the test, 2 mg/mL type II collagen (C II) solution and 4 mg/mL complete Freund's adjuvant (CFA) solution were mixed in equal volumes under ice bath conditions to fully emulsify. On day 0, an emulsion prepared by mixing equal volumes of C II (2 mg/mL) and CFA (4 mg/mL) was injected intracutaneously into the base of the tail of experimental rats for primary immunization, and on day 7, secondary booster immunization was performed.
(§3) The therapeutic effect of the test compound was tested in a rat CIA model. The rats were randomly divided into groups with 8 animals in each group. All animals were immunized on day 0 and boosted on day 7.
Foot volume was scored for the swelling of four toes at the same time, the score for each foot was 0-4, and the highest score for each rat was 16. 0—no swelling, normal appearance; 1—mild swelling or redness of the ankle joint, wrist joint or finger joint; 2—moderate swelling or redness of the ankle joint, wrist joint or finger joint; 3—severe swelling or redness of the ankle joint, wrist joint or finger joint; 4—very severe swelling or redness of the ankle joint, wrist joint or finger joint.

[3] = Body weight of CIA rats
Protocol: as §1, §2, §3
Therefore, the differences in body weight and foot volume after the onset of arthritis compared with the negative group, respectively, can be used to evaluate the therapeutic effect in the rat model. The experimental data were expressed as Mean±SEM; the data between the two groups was tested by unpaired t-test and p<0.05 was considered as a significant difference.

[4] = target: T1, humanether-a-go-go related gene (hERG) channels (Homo sapiens, UniProt Q12809); experiment: hERG test, patch clamp in HEK293 cells; format: cell-based; details: HEK293 cells expressing hERG, tail current
T1 construct: expressed in transfected cells; host or cells: HEK293
Source text: For the purpose of evaluating the risk of prolonged QT interval in ECG of the compound according to the present invention, HEK293 cells expressing humanether-a-go-go related gene (hERG) channels were used to study the effect of the compound according to the present invention on the delayed rectifier K+ current (Ikr) playing an important role in ventricular repolarization.
The cells are maintained at −80 mV using a fully automatic patch clamp system (patch clamp PC-505B (WARNER instruments)) through a fully automatic patch clamp method, and then depolarized to 40 mV with a square wave lasting 4 s and hyperpolarized to −40 mV with a square wave lasting 2 s to obtain the hERG tail current. The maximum current induced by the second square wave was detected. After this current was stabilized, the test compound was perfused. After the reaction was stabilized, the blocking strength was calculated.
Extracellular fluid (mM): NaCl, 137; KCl, 4; CaCl2, 1.8; MgCl2, 1; HEPES, 10; glucose 10; pH 7.4 (NaOH titration). Intracellular fluid (mM): K Aspartate, 130; MgCl2, 5; EGTA 5; HEPES, 10; Tris-ATP 4; pH 7.2 (KOH titration).

[5] = 2 mg/kg oral gavage once daily for 2 w, day 0
[6] = 2 mg/kg oral gavage once daily for 2 w, day 8
[7] = 2 mg/kg oral gavage once daily for 2 w, day 11
[8] = 2 mg/kg oral gavage once daily for 2 w, day 14
[9] = 2 mg/kg oral gavage once daily for 2 w, day 17
[10] = 2 mg/kg oral gavage once daily for 2 w, day 21
[11] = 2 mg/kg oral gavage once daily for 2 w, day 24
[12] = 2 mg/kg oral gavage once daily for 2 w, day 28
[13] = 3 mg/kg oral gavage once daily for 2 w, day 0
[14] = 3 mg/kg oral gavage once daily for 2 w, day 8
[15] = 3 mg/kg oral gavage once daily for 2 w, day 11
[16] = 3 mg/kg oral gavage once daily for 2 w, day 14
[17] = 3 mg/kg oral gavage once daily for 2 w, day 17
[18] = 3 mg/kg oral gavage once daily for 2 w, day 21
[19] = 3 mg/kg oral gavage once daily for 2 w, day 24
[20] = 3 mg/kg oral gavage once daily for 2 w, day 28
[21] = 5 mg/kg oral gavage once daily for 2 w, day 0
[22] = 5 mg/kg oral gavage once daily for 2 w, day 8
[23] = 5 mg/kg oral gavage once daily for 2 w, day 11
[24] = 5 mg/kg oral gavage once daily for 2 w, day 14
[25] = 5 mg/kg oral gavage once daily for 2 w, day 17
[26] = 5 mg/kg oral gavage once daily for 2 w, day 21
[27] = 5 mg/kg oral gavage once daily for 2 w, day 24
[28] = 5 mg/kg oral gavage once daily for 2 w, day 28
[29] = 10 mg/kg oral gavage once daily for 2 w, day 0
[30] = 10 mg/kg oral gavage once daily for 2 w, day 8
[31] = 10 mg/kg oral gavage once daily for 2 w, day 11
[32] = 10 mg/kg oral gavage once daily for 2 w, day 14
[33] = 10 mg/kg oral gavage once daily for 2 w, day 17
[34] = 10 mg/kg oral gavage once daily for 2 w, day 21
[35] = 10 mg/kg oral gavage once daily for 2 w, day 24
[36] = 10 mg/kg oral gavage once daily for 2 w, day 28

T1 sequence (Q12809 whole entry): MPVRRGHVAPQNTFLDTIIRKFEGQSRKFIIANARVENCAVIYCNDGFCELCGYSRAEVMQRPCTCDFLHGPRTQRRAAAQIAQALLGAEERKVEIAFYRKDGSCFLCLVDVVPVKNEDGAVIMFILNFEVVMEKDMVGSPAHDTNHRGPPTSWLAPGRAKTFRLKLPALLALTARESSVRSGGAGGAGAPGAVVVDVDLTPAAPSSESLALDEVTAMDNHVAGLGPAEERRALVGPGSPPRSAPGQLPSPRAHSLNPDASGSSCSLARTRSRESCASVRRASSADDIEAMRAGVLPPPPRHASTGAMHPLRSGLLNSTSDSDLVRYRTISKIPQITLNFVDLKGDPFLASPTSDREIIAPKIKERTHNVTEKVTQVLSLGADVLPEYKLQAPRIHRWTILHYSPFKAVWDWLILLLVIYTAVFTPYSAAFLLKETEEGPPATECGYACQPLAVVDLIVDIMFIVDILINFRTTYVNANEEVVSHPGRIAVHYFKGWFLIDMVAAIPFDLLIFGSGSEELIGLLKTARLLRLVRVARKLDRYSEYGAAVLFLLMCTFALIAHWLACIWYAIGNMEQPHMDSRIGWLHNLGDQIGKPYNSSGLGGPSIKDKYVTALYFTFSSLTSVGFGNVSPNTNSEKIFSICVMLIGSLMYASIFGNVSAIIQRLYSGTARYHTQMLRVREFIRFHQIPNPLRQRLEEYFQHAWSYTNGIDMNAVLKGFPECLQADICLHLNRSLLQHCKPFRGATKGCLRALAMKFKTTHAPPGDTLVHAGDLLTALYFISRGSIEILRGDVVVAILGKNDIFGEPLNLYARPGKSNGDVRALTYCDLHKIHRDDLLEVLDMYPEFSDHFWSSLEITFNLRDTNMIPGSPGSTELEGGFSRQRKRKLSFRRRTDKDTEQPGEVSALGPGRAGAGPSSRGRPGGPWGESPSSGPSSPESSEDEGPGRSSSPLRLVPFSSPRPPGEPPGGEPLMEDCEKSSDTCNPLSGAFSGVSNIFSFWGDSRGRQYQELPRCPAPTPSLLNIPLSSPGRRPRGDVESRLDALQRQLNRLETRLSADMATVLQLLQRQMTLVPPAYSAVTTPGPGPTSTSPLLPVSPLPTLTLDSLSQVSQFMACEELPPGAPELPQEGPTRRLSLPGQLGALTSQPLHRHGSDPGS

O=C(Nc1cn2c(-c3ccc(CN4CCS(=O)(=O)CC4)s3)cccc2n1)[C@H]1C[C@@H]1F (relative stereo) [EXP-3, trans-N-[5-[5-[(1,1-dioxo-1,4-thiazin-4-yl)methyl]-2-thiophene]imidazo[1,2-a]pyridin-2-yl]-2-fluoro-cyclopropylcarboxamide]
Ames test result [1]: negative
Arthritis index/Day [2, 5]: 0 ± 0
Arthritis index/Day [2, 6]: 0 ± 0
Arthritis index/Day [2, 7]: 0.50 ± 0.33
Arthritis index/Day [2, 8]: 3.63 ± 0.91
Arthritis index/Day [2, 9]: 6.25 ± 1.36
Arthritis index/Day [2, 10]: 9.00 ± 1.24
Arthritis index/Day [2, 11]: 9.13 ± 1.04
Arthritis index/Day [2, 12]: 8.63 ± 0.63
Arthritis index/Day [2, 13]: 0 ± 0
Arthritis index/Day [2, 14]: 0 ± 0
Arthritis index/Day [2, 15]: 0.38 ± 0.18
Arthritis index/Day [2, 16]: 3.75 ± 0.70
Arthritis index/Day [2, 17]: 6.25 ± 0.75
Arthritis index/Day [2, 18]: 10.25 ± 0.70
Arthritis index/Day [2, 19]: 10.88 ± 0.44
Arthritis index/Day [2, 20]: 9.25 ± 0.45
Arthritis index/Day [2, 21]: 0 ± 0
Arthritis index/Day [2, 22]: 0 ± 0
Arthritis index/Day [2, 23]: 0.63 ± 0.26
Arthritis index/Day [2, 24]: 3.50 ± 0.76
Arthritis index/Day [2, 25]: 5.88 ± 1.22
Arthritis index/Day [2, 26]: 9.00 ± 1.22
Arthritis index/Day [2, 27]: 9.13 ± 1.04
Arthritis index/Day [2, 28]: 8.00 ± 0.65
arthritis index, relative effect on swelling of the extremities in words ([2]; 10 mg/kg): strongest effect on reducing swelling of the extremities
Arthritis index/Day [2, 29]: 0 ± 0
Arthritis index/Day [2, 30]: 0 ± 0
Arthritis index/Day [2, 31]: 0.38 ± 0.38
Arthritis index/Day [2, 32]: 3.75 ± 0.70
Arthritis index/Day [2, 33]: 5.00 ± 0.89
Arthritis index/Day [2, 34]: 6.50 ± 0.50
Arthritis index/Day [2, 35]: 7.25 ± 0.56
Arthritis index/Day [2, 36]: 7.25 ± 0.41
Body weight (g)/Day [3, 5]: 172.3 ± 1.9 g
Body weight (g)/Day [3, 6]: 172.6 ± 0.7 g
Body weight (g)/Day [3, 7]: 172.3 ± 1.8 g
Body weight (g)/Day [3, 8]: 170.3 ± 1 g
Body weight (g)/Day [3, 9]: 169.1 ± 1.2 g
Body weight (g)/Day [3, 10]: 164.9 ± 1.8 g
Body weight (g)/Day [3, 11]: 166.4 ± 2.6 g
Body weight (g)/Day [3, 12]: 166.9 ± 2.7 g
Body weight (g)/Day [3, 13]: 174.5 ± 1.3 g
Body weight (g)/Day [3, 14]: 172.4 ± 2.7 g
Body weight (g)/Day [3, 15]: 170.8 ± 3.8 g
Body weight (g)/Day [3, 16]: 171.6 ± 2.9 g
Body weight (g)/Day [3, 17]: 170.1 ± 2.7 g
Body weight (g)/Day [3, 18]: 166.8 ± 1.8 g
Body weight (g)/Day [3, 19]: 165 ± 1.8 g
Body weight (g)/Day [3, 20]: 169.3 ± 2 g
Body weight (g)/Day [3, 21]: 171.8 ± 2.3 g
Body weight (g)/Day [3, 22]: 171.1 ± 3.1 g
Body weight (g)/Day [3, 23]: 170.9 ± 4.5 g
Body weight (g)/Day [3, 24]: 171.4 ± 2.4 g
Body weight (g)/Day [3, 25]: 172.8 ± 2.2 g
Body weight (g)/Day [3, 26]: 166.5 ± 1.9 g
Body weight (g)/Day [3, 27]: 165.3 ± 1.7 g
Body weight (g)/Day [3, 28]: 169.1 ± 2.1 g
body weight course, in words ([3]; 10 mg/kg): increased slightly on days 11-17, but then fell back
Body weight (g)/Day [3, 29]: 173.9 ± 1.8 g
Body weight (g)/Day [3, 30]: 175.3 ± 2.1 g
Body weight (g)/Day [3, 31]: 175.9 ± 2.8 g
Body weight (g)/Day [3, 32]: 175.3 ± 2.2 g
Body weight (g)/Day [3, 33]: 176.4 ± 3.3 g
Body weight (g)/Day [3, 34]: 171.8 ± 2.9 g
Body weight (g)/Day [3, 35]: 166.3 ± 2.9 g
Body weight (g)/Day [3, 36]: 170.4 ± 3.1 g
IC50 [4]: > 10 µM
